Values of other authors, collected in patent publication US7271157B2, “A1 adenosine receptor agonists” (CV Therapeutics, Inc., priority 2004, dated 2007).
Each block holds one compound with its values, some of them ahead of it.

What was measured:
A1-adenosine receptor = target: T1, A1-adenosine receptor (Homo sapiens, UniProt P30542)
T1 sequence (P30542 1-326): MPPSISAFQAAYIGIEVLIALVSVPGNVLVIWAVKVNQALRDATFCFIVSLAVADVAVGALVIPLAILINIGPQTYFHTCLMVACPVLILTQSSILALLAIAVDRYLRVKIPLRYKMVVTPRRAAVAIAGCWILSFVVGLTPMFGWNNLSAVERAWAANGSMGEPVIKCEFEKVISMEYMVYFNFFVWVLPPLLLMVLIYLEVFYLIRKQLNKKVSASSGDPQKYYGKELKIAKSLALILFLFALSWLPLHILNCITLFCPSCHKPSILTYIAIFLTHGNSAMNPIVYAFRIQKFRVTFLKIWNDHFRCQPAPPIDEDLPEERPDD

seizures induced by DMCM = details: experimental models of epilepsy

Compound: OC1CCCC1Nc1ncnc2c1ncn2[C@@H]1O[C@H](CSc2ccccc2F)[C@@H](O)[C@H]1O (mixture of isomers) [(4S,5S,2R,3R)-5-[(2-fluorophenylthio)methyl]-2-{6-[(2-hydroxycyclopentyl)amino]-purin-9-yl}oxolane-3,4-diol]
A1-adenosine receptor agonist character and selectivity (A1-adenosine receptor): highly selective partial A1-adenosine receptor agonist

half-life: less than 10 sec
Compound: Nc1ncnc2c1ncn2[C@@H]1O[C@H](CO)[C@@H](O)[C@H]1O [adenosine]

Compound: Cc1ccccc1CNc1ncnc2c1ncn2[C@@H]1O[C@H](CO)[C@@H](O)[C@H]1O [metrifudil]
anticonvulsant activity against DMCM-induced seizures (seizures induced by DMCM): potent anticonvulsant
